The source of these data is patent publication US20230081986A1, “METHOD AND REAGENTS TO IMPROVE NONANIMAL OCULAR TOXICITY TESTS” (Lebrun Labs LLC, priority 2021, published 2023).

Series [1] has as its system food-source rabbit eyes (cornea). To be noted: 100 µL, 1 minute exposure, tear solution wash, 24 hours organ culture. Here is the method:
(§1) Because of these modifications, we have updated our prediction model to include the metabolic test to identify reversible irritants or toxicity as shown in FIG. 3. For GHS (A) and EPA (B) classification systems, if the direct procedure (100 µL, washed after 1 minute exposure with 20 mL tear solution using a blunt end syringe 2-5 cm from cornea to create a laminar flow across the tissue) is negative, the metabolic result is used to confirm the negative result or identify reversible irritants or toxicity (GHS 2 or EPA II) if increased DoI is detected. […] For the GHS classification system, the NC is defined by no stromal DoI and a negative metabolic test.
Only food source eyes are suitable for this procedure.
3) Put the lid onto the 12 well plate(s) and place into the incubator (37° C., 5% CO2) for one hour.
3) Place an eye on the holder and carefully place a new cloning ring in the middle of the cornea without scratching it.
9) Start the timer for one minute.
10) After the one minute is over, remove the dosing ring and put in the proper container, and pick up the tissue without touching the cornea and hold it over the container for liquid waste.

Series [2] shares this test system. To be noted: 6 minutes, 100 µL tear solution then 100 µL test material; run only where Direct was 0%. Here is the method:
All of the steps of the META test are the same as the direct test except for the dosing step. For the META, 100 µL of tear solution (saline with ascorbic acid, protein) is first added to the dosing ring, followed by the addition of 100 µL of the material to be tested.
as §1
NOTE: The steps of the main procedure are the same as described above. The only deviations are described below and apply to the dosing of the corneas and interpretation of results. • 1) After the pre-incubation, remove the 12 well plate(s) from the incubator and place in the hood. • 2) Using a skinny sharpie, label the wells on the lid (water or specific chemical). • 3) Place an eye on the holder and carefully place a new cloning ring in the middle of the cornea without scratching it. • 4) Remove the needle from the syringe by twisting it off. Fill the syringe with 40 mL of 1x PBS by aliquoting it from the beaker. • 5) Put the needle back on the syringe by twisting on and remove the cap protecting the needle. Place the syringe flat on a sterile piece of foil. • 6) Obtain the timer. Add 100 uL of the T8 tear solution in the center of the dosing ring. Ensure the entire surface is covered. • 7) Retrieve 100 uL of the sample and aspirate in the center of the dosing ring, ensuring the entire surface is exposed.

Series [3] shares this test system. To be noted: for Prediction EPA: EPA prediction model from direct and metabolic results; for Prediction GHS: GHS prediction model from direct and metabolic results.
Excerpt: FIG. 3 depicts the EPA and GHS prediction models. […] Meta. = Metabolic; GHS = Globally Harmonized System of Classification and Labeling of chemicals; EPA = Environmental Protection Agency; NC = Not Classified; * = Apical death of epithelium of at least 10%; must be a clear line of nuclei.
as §1

In series [4] the test system is rabbit eye (cornea, iris, and conjunctiva). To be noted: Lebrun et al., cited from earlier work; for in vivo EPA: EPA classification, 2020 / NICEATM, 2006; for in vivo GHS: GHS classification, 2020.
Series [5] relates to rabbit cornea. In words: Cornea exposure for different times, with and without the esterase inhibitor ebelactone. To be noted: for state of the cornea: 6-minute exposure. Here is the method: FIG. 2 depicts the effects of ebelactone on rabbit cornea.
To test this hypothesis, we incubated corneas with 100 µL of the test chemical for different exposure times and observed that methyl cyanoacetate produced a toxic effect on the eye after 6 minutes of exposure. To confirm that this increased toxicity was metabolically related, eyes were treated with ebelactone, an inhibitor of nonspecific esterases. […] Based on these findings, we updated the IVD EIT method to include the following: Each chemical is first tested using a direct 1-minute application to the eye; if negative, the chemical is then retested for 6 minutes using the metabolic test (META). All of the steps of the META test are the same as the direct test except for the dosing step. For the META, 100 µL of tear solution (saline with ascorbic acid, protein) is first added to the dosing ring, followed by the addition of 100 µL of the material to be tested.

The conditions of series [6]: literature review [11]; cited from earlier work.

Each structure is given as a SMILES string.

Regarding `O=C(Cl)c1c(Cl)cccc1Cl` [2,6-Dichlorobenzoyl chloride], the “Direct (depth of injury, stromal)” value in series [1] was determined as 0.0%. For the same compound, the “Meta. (Metabolic)” value in series [2] is recorded as “Pos”. In series [3], the “Prediction EPA” value is “II (category II includes damage greater than 15% but less than 25% (or is positive for cell death by the metabolic test))” and the “Prediction GHS” value is recorded as 2 (Category 2 is identified by any stromal DoI up to 18% or a positive metabolic test). Also, in series [4], the “in vivo EPA” value is recorded as “II (II (damage is reversed within 21 days of exposure))” and the “in vivo GHS” value was 2A (2 A, irritation effects are reversed within 21 days).
As for `CC(C)=O` [Acetone], in series [1], the “Direct (depth of injury, stromal)” value is on record as 0.0%. In series [2], the “Meta. (Metabolic)” value is on record as “Pos”. Besides, in series [3], the “Prediction EPA” value is on record as “II (category II includes damage greater than 15% but less than 25% (or is positive for cell death by the metabolic test))” and the “Prediction GHS” value is given as 2 (Category 2 is identified by any stromal DoI up to 18% or a positive metabolic test). Also, in series [4], the “in vivo EPA” value is “II (II (damage is reversed within 21 days of exposure))” and the “in vivo GHS” value is given as 2A (2 A, irritation effects are reversed within 21 days).
As to `COC(=O)CC#N` [methyl cyanoacetate], the “state of the cornea” value in series [5] (in the presence of ebelactone) was “somewhat swollen but there are mostly viable cells”; in series [5] (without ebelactone) it was “swollen with no viable cells”. Besides, the “effect on the eye” value in series [5] (100 µL, after 6 minutes of exposure) is listed as “toxic effect”. In addition, in series [6], the “classification by most nonanimal tests” value is given as “misclassified as FN”.
